# Source: US20170183637A1, “SPLIT RECOMBINANT LUCIFERASE, AND ANALYSIS METHOD USING THEREOF” (OLYMPUS CORPORATION, priority 2014, published 2017)
# B1: OKI359: C-terminal fragment, residues 359 to 562 of OKI-derived luciferase; names the permutated luciferase made with OKI-N (protein)
# chain: KPGACGKVAPFFSAKIVDLDTSKTLGVNQRGELCLKGPMIMKGYVNNPEATNALIDKDGWLHSGDLAYYDKDGHFFIVDRLKSLIKYQGYQVPPAELESILLQHPFIFDAGVAGIPDADAGELPAAVVVLEEGKTMTEQEVMDYVAGQVTASKRLRGGVKFVDEVPKGLTGKIDSRKIREMLTMGKKSKL
# How the values were obtained:
# [1] = test system: 5HT2A receptor-expressing HEK293 cells; experiment: High-speed luminescence imaging of changes in calcium ion concentrations upon 5HT stimulation (Experiment 11); type: cell-based, human; details: 5HT 10 μM; cpSfRE55-CaM in 5HT2A receptor-expressing HEK293 cells; images every 500 milliseconds; FIG. 15
# Description: The cells cultured in Procedure 1 were seeded onto 35 mm-diameter glass bottom dishes at a density of 2×10^5 cells/dish and cultured overnight in a 5% CO2 incubator. The human 5HT2A receptor expression plasmid pcDNA/5HT2AR and luminescent calcium indicator expression plasmid were transferred into the cells by electroporation using NEPA21 and the cells were cultured overnight in a 5% CO2 incubator.
# 2 mM luciferin (Promega) was added to the culture medium of the culture obtained in Procedure 2 and the culture was allowed to stand for 1 h. The culture dish was loaded onto a luminescence microscope (LV-200, Olympus) and time-lapse image capturing was performed to acquire luminescence images at an interval of 500 milliseconds. Luminescence observation conditions were as follows: magnification of objective lens:=40×, exposure time=200 milliseconds, and binning=2×2. Using an EM-CCD camera (iXon, Andor), luminescence images were taken and transferred to a personal computer. […]
# Regions of interest (ROIs) were designated for each luminescence image captured in Procedure 3 and for each luminescence image captured in Procedure 4. […] The luminescence images were analyzed using MetaMorph software (Universal imaging). […]
# HEK293 cells [2] = experiment: Luminescence measurement of changes in intracellular calcium level in HEK293 cells upon ATP stimulation (Experiment 9); type: cell-based; details: ATP 200 μM, luciferin 2 mM, luminometer, FIG. 13
# Description: HEK293 cells (1×10^6 cells) were collected by centrifugation and luminescent calcium indicator expression vectors were transferred into the cells by electroporation using NEPA21. The transfected HEK293 cells were seeded into a 24-well multiplate at a concentration of 1×10^5 cells/well and cultured overnight in a 5% CO2 incubator.
# After rinsing the cells with CO2-independent culture medium twice, 200 μL of CO2-independent culture medium containing D-luciferin (final conc.=2 mM) was added and the plate was allowed to stand for 15 min.
# The plate was placed in a luminometer (Luminescencer-JNR II, ATTO), and luminescence intensity for pre- and post-ATP (200 μM) stimulation was measured over time.
# Luminescent calcium indicators were transferred into HEK293 cells and the cells were cultured overnight. The cells were rinsed with CO2-independent culture medium, luciferin was added to the CO2-independent culture medium to a final luciferin concentration of 2 mM, and the culture was allowed to stand for 15 min, followed by measurement of luminescence intensity using a luminometer.
# HEK293 cells [3] = experiment: Luminescence-based calcium imaging in HEK293 cells upon ATP stimulation (Experiment 10); type: cell-based; details: FIG. 14
# Description: HEK293 cells were acquired from ATCC and cultured in a 5% CO2 incubator in Earle's MEM culture medium (GIBCO) supplemented with 10% Fetal Bovine Serum and 1× Nonessential amino acids.
# The cultured HEK293 cells were seeded onto 35 mm-diameter glass bottom dishes at a density of 2×10^5 cells/dish and cultured overnight in a 5% CO2 incubator. Luminescent calcium indicator expression plasmids were transferred into the HEK293 cells by electroporation using NEPA21 and cultured overnight in a 5% CO2 incubator.
# 2 mM luciferin (Wako Pure Chemical industries, Ltd.) was added to the culture medium and the culture was allowed to stand for 1 h. The culture dish was then loaded onto a luminescence microscope (LV-200, Olympus) and time-lapse image capturing was performed to acquire luminescence images at an interval of 10 sec. Luminescence observation conditions were as follows: magnification of objective lens=40×, exposure time=5 sec, and binning=1×1. An EM-CCD camera (iXon, Andor) was used as a CCD camera, and luminescence images were transferred to a personal computer configured as an image analyzer.
# Changes in luminescence intensity of luminescent calcium indicators in response to changes in intracellular calcium ion concentration upon addition of ATP in culture medium were imaged. […] The luminescence images were transferred to the PC every 10 sec. […]
# E. coli (JM109 (DE3)) = experiment: Luminescence activity of permutated and heterologous permutated firefly luciferase expressed in E. coli (Experiments 1 and 2); type: cell-based; details: Bright-Glo, 5 min room temperature, counts per 10 sec, FIG. 3
# Description: The pRSET vector containing the permutated firefly luciferase gene was transformed into JM109(DE3) strain of E. coli and cultured overnight at 37° C. To 50 μL of culture was added 50 μL of Bright-Glo (Promega) and the culture was allowed to stand for 5 min at room temperature. Luminescence level for 10 sec was then measured using a luminometer (Luminescencer-JNR II, ATTO).
# The prepared expression vector was transformed into E. coli (JM109 (DE3)) and cultured overnight in LB medium. To 50 μL of culture was added an equal volume of Bright-Glo and the culture was allowed to stand for 5 min at room temperature. Luminescence level of the reaction solution was reported as counts per 10 sec measured with the luminometer. As a control, permutated luciferase (GL4) derived from the North American firefly (Pholinus pyralis) luciferase was used. In FIG. 3, luminescence activities of GL4-derived and OKI-derived permutated luciferases are shown in terms of relative values with the activity of GL4 being 1. The vertical axis in FIG. 3 represents relative luminescence level.
# The pRSET vector containing the heterologous permutated luciferase gene was transformed into JM109(DE3) strain of E. coli and cultured overnight at 37° C. in LB medium. […] Luminescence level for 10 sec was then measured using a luminometer (Luminescencer-JNR II, ATTO). […]
molecule,measurement,setting,value
"NCCc1c[nH]c2ccc(O)cc12 [5HT, Serotonin]",luminescence intensity response of indicator-expressing cells to 5HT stimulation,[1],"cells that exhibited oscillation, as well as cells that exhibited a transient reduction in luminescence intensity"
"Nc1ncnc2c1ncn2[C@@H]1O[C@H](COP(=O)(O)OP(=O)(O)OP(=O)(O)O)[C@@H](O)[C@H]1O [ATP, adenosine tri phosphate]",change in luminescence intensity of luminescent calcium indicator upon ATP stimulation,HEK293 cells [2],reductions in luminescence intensity
same,time course of luminescence intensity change caused by ATP stimulation,HEK293 cells [3],transient
same,luminescence intensity of indicator-expressing cells after ATP stimulation (single-cell imaging),"HEK293 cells [3]; luciferin 2 mM, exposure 5 sec",decreased levels of luminescence intensity
B1,"luminescence activity (relative luminescence level, GL4 being 1)",E. coli (JM109 (DE3)),high levels of luminescence activity
